According to US20130030049A1, “METHODS OF TREATING DERMATOLOGICAL DISORDERS OR CONDITIONS” (Dermira (Canada), Inc., priority 2006, published 2013):
pIC50: −log10 of the molar value. Read-outs that look alike come from different tables or passages of the source. Values belong to the compound of their own block, whether it stands above or below them.

Experiments:
[1] = oral, moderate to severe acne patients, at 12 weeks; cited from earlier work
SZ95 sebocytes [2] = test: Inhibition of lipid synthesis in AA-stimulated SZ95 sebocytes (Nile Red staining); type: cell-based, human
Protocol: (§1) The immortalized human sebocyte cell line, SZ95, was maintained in culture as described in Zouboulis, C. C. et al., J. Invest. Dermatol. (1999), Vol. 113, pp. 1011-1020. Lipid synthesis was stimulated by treating SZ95 cells with arachidonic acid (AA). For measurement of lipid production and lipid inhibition studies, test compounds were dissolved in dimethylsulfoxide (DMSO) and added at the desired concentration in 96-well microtiter plates. The cells were then cultured for up to 72 hours before the plates were washed 3 times with PBS and a final volume of 200 μL PBS/well was added. To stain cell neutral lipids, 5 μL of Nile Red solution (0.2 mg/mL dissolved in DMSO) was added to each well and incubated for a minimum of 60 minutes. Plate fluorescence was then quantified using a fluorometric plate reader (excitation wavelength: 490 nm; emission wavelength: 590 nm). Inhibition of lipid levels by the test compound was expressed as the % reduction of the fluorescence of AA-stimulated cells in the presence of the test compound relative to the values obtained for the unstimulated control cells. Cell viability was measured by utilizing the conversion of a tetrazolium reagent (MTS) to a colored-formazan product by live cells. For these assays, the test compound was dissolved in dimethylsulfoxide (DMSO) and added at the desired concentration to cells seeded into 96-well plates. The cells were cultured for 48 hours in the presence of the test compound before the plates were washed 3 times with PBS. A final volume of 100 μL of culture medium per well was added. Twenty μL of MTS solution (0.2 mg/mL in sterile PBS) was added to each well and incubated for a minimum of 60 minutes until the desired optical density was reached. The color development of the wells was measured using a plate reader at an absorbance of […]. Effect on cell viability by the test compound was expressed as the % reduction of the absorbance for AA-stimulated cells in the presence of the test compound relative to the values obtained for the untreated control cells.

IL-6 = test: Supernatant IL-6 level of activated PBMC (flow cytometry-based); type: cell-based; conditions: Homo sapiens; PBMC stimulated with IFN-γ plus LPS, 10% FBS, 48 hours; read-out: IL-6 supernatant level IC50 (estimated)
Protocol: (§2) As described herein, the inhibitory effect of TOFA on fatty acid synthesis is well known. However, the potential influence of TOFA on cellular production of inflammatory mediators or immune cell proliferation is unreported. To address this question, PBMC were isolated from different donors by density gradient centrifugation. Different amounts of TOFA were added to PBMC cultures in the presence of two different stimuli sets. One activating stimulus was phytohemagglutinin (PHA), a plant-derived mitogen that stimulates proliferation and cytokine synthesis by T lymphocytes. These cell preparations were also activated using a combination of interferon-γ (IFN-γ) and lipopolysaccharide (LPS) to stimulate cytokine production by the monocyte fraction within PBMC preparations. Following a 48 hour culture period, cell supernatants were obtained for simultaneous determination of cytokine levels using a flow cytometry-based quantification method. […] Cell viability was assessed using a colorimetric assay based on the conversion of 3-(4,5-dimethylthiazol-2-yl)-5-(3-carboxymethoxyphenyl)-2-(4-sulfophenyl)-2H-tetrazolium, inner salt (MTS) into a soluble formazan product by mitochondrial dehydrogenase of viable cells. Cell proliferation was determined by adding ^3H-thymidine to the cultures and determining its level of incorporation into DNA using scintillation counting.

PBMC = test: Viability of activated PBMC (MTS assay); type: cell-based, human
Protocol: as §2

SZ95 sebocytes [3] = test: SZ95 sebocyte viability (MTS assay); type: cell-based, human; conditions: AA-stimulated SZ95 cells, FIG. 2B
Protocol: as §1, with “To stain cell neutral lipids, 5 μL of Nile Red solution (0.2 mg/mL dissolved in DMSO) was added to each well and incubated for a minimum of 60 minutes.” left out, “For these assays, the test compound was dissolved in dimethylsulfoxide (DMSO) and added at the desired concentration to cells seeded into 96-well plates. The cells were cultured for 48 hours in the presence of the test compound before the plates were washed 3 times with PBS. A final volume of 100 μL of culture medium per well was added. Twenty μL of MTS solution (0.2 mg/mL in sterile PBS) was added to each well and incubated for a minimum of 60 minutes until the desired optical density was reached.” left out

IL-1β = test: Supernatant IL-1β level of activated PBMC (flow cytometry-based); type: cell-based; conditions: Homo sapiens; PBMC stimulated with IFN-γ plus LPS, 10% FBS, 48 hours; read-out: IL-1β supernatant level IC50 (estimated)
Protocol: as §2

LNCaP cells = test: Lipid accumulation in DHT-stimulated LNCaP cells (Nile Red flow cytometry, Oil Red O); type: cell-based, human
Protocol: The human prostate LNCaP adenocarcinoma cell line was obtained from American Type Culture Collection. Cells were maintained in RPMI 1640 medium containing 10% fetal calf serum (FCS), 4 mM Glutamax, 1 mM sodium pyruvate, 1 mM HEPES, penicillin (100 U/mL) and streptomycin (100 μg/mL). For experiments, approximately 10,000 cells/well were plated in 6-well tissue culture plates in RPMI 1640 10% FBS for 72 hours. To minimize potential serum androgen effects, medium containing 5% charcoal/dextran-stripped FCS was added for 72 hours. Lipid synthesis was then stimulated by addition of the androgen dihydrotestosterone (DHT) at 50 nM. TOFA was solubilized in DMSO and added at various concentrations in RPMI 1640 containing 5% charcoal/dextran-treated. Cells were incubated in the presence of these factors for 96 hours at 37° C. Lipid accumulation was subsequently quantified by Nile Red staining and flow cytometric analysis. The flow cytometer laser excitation was set at 488 nm and Nile Red fluorescence collected through a 585 nm band pass filter. A total of 10,000 events were collected per sample. […] Cell Nile Red fluorescence was also visualized through a fluorescence microscope.
Cellular lipid expression was also determined using Oil Red O staining. […] Lipid accumulation was visualized by fluorescence microscopy.

IL-8 = test: Supernatant IL-8 level of activated PBMC (flow cytometry-based); type: cell-based; conditions: Homo sapiens; PBMC stimulated with IFN-γ plus LPS, 10% FBS, 48 hours; read-out: IL-8 supernatant level IC50 (estimated)
Protocol: as §2

3T3-L1 cells = test: 3T3-L1 adipocyte differentiation and lipid accumulation (Oil Red O); type: cell-based; conditions: mouse 3T3-L1 adipocytes, FIGS. 8-10
Protocol: Mouse 3T3-L1 preadipocytes (American Type Culture Collection) were passaged and maintained in Dulbecco's modified Eagles Medium (DMEM) supplemented with 10% fetal calf serum (FCS), 1 mM sodium pyruvate, penicillin (100 U/ml)/streptomycin (100 μg/ml) and 4 mM Glutamax (Gibco/Life Technologies). To initiate adipocyte differentiation, 3T3-L1 cells were plated at confluency into culture plates or dishes and grown in supplemented DMEM for two days post-confluency. Initiation medium consisted of DMEM with 0.5 mM 3-isobutyl-1-methylxanthine, 1 μM dexamethasone and human insulin at 10 μg/ml. Progression medium contained insulin (10 μg/ml) which replaced the initiation medium after 48-72 hours. Cellular lipid was imaged by Oil Red O staining as described in Example 2 for LNCaP cells.

TNF-α = test: Supernatant TNF-α level of activated PBMC (flow cytometry-based); type: cell-based; conditions: Homo sapiens, 48 h, PBMC stimulated with IFN-γ plus LPS, 10% FBS, read-out: TNF-α supernatant level IC50 (estimated)
Protocol: as §2

SMILES: CC(c1cc2ccccc2s1)N(O)C(N)=O (stereo not shown) [Zileuton]
- reduction in inflammatory lesions [1]: 71%
- reduction of sebum lipids [1]: 65%

SMILES: CCCCC/C=C\C/C=C\C/C=C\C/C=C\CCCC(=O)O [arachidonic acid (AA), arachidonic acid, reference compound]
- increase of SZ95 sebocyte lipid levels (SZ95 sebocytes [2]; 96-well microtiter plate format): approximately 5 fold

- pIC50 (IL-6): < 4.05
- pIC50 (SZ95 sebocytes [2]; Homo sapiens, AA-stimulated SZ95 cells, FIG. 2A, read-out: estimated IC50 upon lipid synthesis (nile red fluorescence intensity)): ~5.52
- pIC50 (IL-1β): < 4.05
- pIC50 (IL-8): < 4.05
- pIC50 (TNF-α): < 4.05
SMILES: CCCCCCCCCCCCCCOc1ccc(C(=O)O)o1 [TOFA, 5-(tetradecyloxy)-2-furancarboxylic acid]
- inhibition of lipid synthesis observed by fluorescence microscopy (SZ95 sebocytes [2]; AA-stimulated SZ95 cells, FIG. 1): dose-dependent inhibition of lipid synthesis
- pIC50 (PBMC; Homo sapiens, PBMC stimulated with PHA (2 μg/mL), 10% FBS, 48 hours, one row per experiment (donor)): < 4.05
- effect on the viability of PBMC (PBMC; PBMC stimulated with PHA or IFN-γ plus LPS): no effect on the viability
- TOFA concentration with viability loss (SZ95 sebocytes [3]): greater than 50 μM
- lipid levels by Oil Red O staining and fluorescence microscopy (LNCaP cells; FIG. 11): dose dependent reduction in lipid levels
- reduction of lipid levels (flow cytometry/fluorescence) (LNCaP cells; TOFA at 25 μM, FIG. 12): > 50%
- effect on cellular differentiation and lipid accumulation (3T3-L1 cells): dose-dependent effects on cellular differentiation and lipid accumulation

- pIC50 (SZ95 sebocytes [2]; SZ95 cells, short term cultures, read-out: IC50 against lipid synthesis): ~4.40
SMILES: CC1=C(/C=C/C(C)=C/C=C/C(C)=C\C(=O)O)C(C)(C)CCC1 [13-cis retinoic acid, 13-cis-retinoic acid, reference compound]
